Laboratory results published in PMC9676260, “Enzymatic properties of CARF-domain proteins in Synechocystis sp. PCC 6803” (Frontiers in Microbiology, 2022).
Blank lines part the entries; values can stand above or below the compound they belong to.

Experiments:
[1] = target: T1, SyCsx1 (Synechocystis sp. PCC 6803, UniProt Q6ZED7); test: fluorogenic RNaseAlert cleavage; gel-based RNA cleavage; format: biochemical; details: allosteric activator binding the CARF domain; 300 nM cA4, 300 nM SyCsx1, 40 nM RNaseAlert substrate, 50 mM HEPES pH 7.5, 50 mM KCl, 1 mM DTT, 30 °C
T1 construct: gene slr7061; full-length, His-tagged (pQE-80), E. coli BL21(DE3); about 89 kDa by SEC, dimer; encoded on plasmid pSYSA, CRISPR2 (III-D) locus
T1 sequence (Q6ZED7 1-422): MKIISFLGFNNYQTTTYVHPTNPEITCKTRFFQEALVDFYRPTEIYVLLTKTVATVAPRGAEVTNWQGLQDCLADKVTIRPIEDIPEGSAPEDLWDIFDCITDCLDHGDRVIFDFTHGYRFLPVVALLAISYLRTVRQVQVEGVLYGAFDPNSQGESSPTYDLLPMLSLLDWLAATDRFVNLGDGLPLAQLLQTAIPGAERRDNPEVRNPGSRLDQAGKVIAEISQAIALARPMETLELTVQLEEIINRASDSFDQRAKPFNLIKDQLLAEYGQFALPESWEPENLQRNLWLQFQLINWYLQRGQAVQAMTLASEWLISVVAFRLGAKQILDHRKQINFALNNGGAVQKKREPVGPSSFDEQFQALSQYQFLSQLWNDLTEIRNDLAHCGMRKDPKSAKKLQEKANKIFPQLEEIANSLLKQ

[2] = target: T2, SyCsm6 (Synechocystis sp. PCC 6803, UniProt Q6ZED6); test: LC-MS of cOA degradation products; coupled SyCsx1 activation assay; format: biochemical; details: ring nuclease; 667 nM cA4, 2 µM SyCsm6, 30 °C, 2 h
T2 construct: gene sll7062; full-length, His-tagged (pQE-80), E. coli BL21(DE3); encoded on plasmid pSYSA, CRISPR2 (III-D) locus
T2 sequence (Q6ZED6 1-371): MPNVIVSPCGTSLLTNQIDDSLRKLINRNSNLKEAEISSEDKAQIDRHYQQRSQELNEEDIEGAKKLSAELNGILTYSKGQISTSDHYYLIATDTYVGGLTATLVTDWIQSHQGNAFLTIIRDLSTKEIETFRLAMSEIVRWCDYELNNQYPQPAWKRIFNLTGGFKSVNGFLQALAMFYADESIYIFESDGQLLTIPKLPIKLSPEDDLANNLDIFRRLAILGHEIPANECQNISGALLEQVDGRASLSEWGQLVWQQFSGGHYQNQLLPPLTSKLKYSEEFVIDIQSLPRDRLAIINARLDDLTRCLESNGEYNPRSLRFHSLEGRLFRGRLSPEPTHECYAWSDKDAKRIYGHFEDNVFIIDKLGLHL

[3] = target: T2, SyCsm6; test: LC-MS of cOA degradation products; format: biochemical; details: ring nuclease; 667 nM cA6, 2 µM SyCsm6, 30 °C, 2 h
[4] = target: T1, SyCsx1; test: fluorogenic RNaseAlert cleavage; format: biochemical; details: activator; cFA4 preincubated at 20 nM (mock or with SyCsm6), then 300 nM SyCsx1, 20 nM RNaseAlert substrate, 30 °C
[5] = target: SyCsm6 (Csm6 homolog of the Synechocystis sp. PCC 6803 CRISPR2 type III-D system) (Synechocystis sp. PCC 6803); test: SEC; Superdex 200 10/300 column in 50 mM Tris pH 8.0, 150 mM NaCl, 5% glycerol; elution volume compared with the monomer's mass; monomer to dimer
[6] = target: SyCsx1 (Csx1 homolog of the Synechocystis sp. PCC 6803 CRISPR2 type III-D system) (Synechocystis sp. PCC 6803); test: as above

Compound: Nc1ncnc2c1ncn2[C@@H]1O[C@@H]2COP(=O)(O)O[C@H]3[C@@H](O)[C@H](n4cnc5c(N)ncnc54)O[C@@H]3COP(=O)(O)O[C@H]3[C@@H](O)[C@H](n4cnc5c(N)ncnc54)O[C@@H]3COP(=O)(O)O[C@H]3[C@@H](O)[C@H](n4cnc5c(N)ncnc54)O[C@@H]3COP(=O)(O)O[C@H]2[C@H]1O [cA4]
fluorogenic RNaseAlert cleavage; gel-based RNA cleavage [1]: the addition of cA4 leads to a significant increase of the fluorescence signal
LC-MS of cOA degradation products; coupled SyCsx1 activation assay [2]: the substrate peak was gone and cA4 was converted to a product

Compound: Nc1ncnc2c1ncn2[C@@H]1O[C@@H]2COP(=O)(O)O[C@H]3[C@@H](O)[C@H](n4cnc5c(N)ncnc54)O[C@@H]3COP(=O)(O)O[C@H]3[C@@H](O)[C@H](n4cnc5c(N)ncnc54)O[C@@H]3COP(=O)(O)O[C@H]3[C@@H](O)[C@H](n4cnc5c(N)ncnc54)O[C@@H]3COP(=O)(O)O[C@H]3[C@@H](O)[C@H](n4cnc5c(N)ncnc54)O[C@@H]3COP(=O)(O)O[C@H]3[C@@H](O)[C@H](n4cnc5c(N)ncnc54)O[C@@H]3COP(=O)(O)O[C@H]2[C@H]1O [cA6]
LC-MS of cOA degradation products [3]: cA6 was cleaved to A2 > P and an additional product

Compound: Nc1ncnc2c1ncn2[C@@H]1O[C@@H]2COP(=O)(O)O[C@H]3[C@@H](F)[C@H](n4cnc5c(N)ncnc54)O[C@@H]3COP(=O)(O)O[C@H]3[C@@H](F)[C@H](n4cnc5c(N)ncnc54)O[C@@H]3COP(=O)(O)O[C@H]3[C@@H](F)[C@H](n4cnc5c(N)ncnc54)O[C@@H]3COP(=O)(O)O[C@H]2[C@H]1F [cFA4]
fluorogenic RNaseAlert cleavage [4]: cFA4 is a less potent activator of SyCsx1 as seen by the slower substrate turnover

stoichiometry N [5]: 2
Compound: SyCsm6 (Csm6 homolog of the Synechocystis sp. PCC 6803 CRISPR2 type III-D system) (enzyme)

stoichiometry N [6]: 2
Compound: SyCsx1 (Csx1 homolog of the Synechocystis sp. PCC 6803 CRISPR2 type III-D system) (enzyme)
